Data reported in patent publication US12410231B2, “Natural killer cell products and methods” (Board of Regents of The University of Texas System, priority 2018, dated 2025).

What was measured:
[1] = tested on: DNAM1, NKP30, NKP44, NKP46, NKG2D, CD16, Fas, FasL; test: Immunophenotype of transduced NK cells (NK receptors, multiparameter flow cytometry); assay type: cell-based, human; settings: rimiducid administration; data not shown
Source text: FIGS. 18A-18E Phenotype of iMC transduced NK cells. […] MFI or the percentages of positive cells were normalized according the average value of non-transduced NK cells. […] Two-way ANOVAs were used to compare groups. P<0.0001. […] Transgene expression as indicated by CD19 positive percentage. Representative flow plots are shown in FIG. 18D and dot plots for N=4 in FIG. 18E. Paired t tests were used to compare groups. **p<0.01.
Transduced NKs or T cells were stained with anti-CD56-APCcy7 (NK) or anti-CD3-Percep.Cy5 (T) and anti-CD19-BV421 for iMC or iRC9 transgene expression. For CAR-transduced cells, anti-CD34 QBEnd-10-PE (Abnova) was used to determine transduction efficiency. […] All antibodies were purchased from Biolegend except otherwise stated. Flow cytometry was performed using NovoCyte flow cytometer and the data were analyzed using ACEA NovoExpress software (ACEA Biosciences Inc, San Diego, CA).
NK cell activating receptors are essential for NK cell activation and recognition of targets. Upon infection or malignant transformation, these ligands typically upregulate and activate NK cells for specific attack and elimination of target cells. […]

IFN-γ = IFN-γ ELISA of supernatant, co-culture with k562; assay type: cell-based, human; settings: rimiducid 0-100 nM
[2] = healthy volunteers; cited from earlier work
transduced NK cells = test: Safety switch activation in NK cells in vitro (Annexin V, 7AAD, CD19 loss); assay type: cell-based, human; settings: 10 nM temsirolimus
Experimental: (§1) FIGS. 25A-25D: Safety switch in NKs. […] FIG. 25A: Annexin V staining was assessed by flow cytometry analysis. FIG. 25B: Temsirolimus at various concentration was administrated for 24 hrs. 7AAD staining was assessed by flow cytometry. Cells were first gated as CD56+CD19+ for transduced cells, CD56+ for NT non-transduced NK cells. […] 4 Four mice were applied administered 1 mg/kg temsirolimus i.p., whereas 5 mice were administrated with same volume vehicle. Before injection and 24 hrs. later, firefly luciferase BLI was determined for to measure NK presence in vivo (FIG. 25E). Mice were then euthanized. Spleens were analyzed for the presence of NK cells by flow cytometry. NK cells were identified as hCD45+mCD45− populations (FIG. 25F). Transduced NKcells were identified as hCD45+mCD45-hCD56+hCD19+ populations (FIG. 25G). Student t test was used to do comparisonscompare groups. ***P<0.001.
FIG. 14—Caspase-9 activation ablates DS NK cells. NK cells from three separate donors were transduced with recombinant retroviruses 1664 (iMC+iRC9) or 1531 (iC9+iRMC) and expanded. […] After 24 hours NK cells were assayed for presence of the CD19 marker cotransduced with the switches. […] MFI=Mean fluorescence intensity of CD19 in flow cytometry, indicating a proportional growth advantage of highly expressing cells. […]

[3] = tested on: iRC9.IL15.iMC-transduced NKs; test: Safety switch activation in vivo in NSG mice (BLI, spleen flow cytometry); parameters: species or system mouse
Experimental: as §1
To prevent potential uncontrolled expansion of the gene modified NK cells, as well as associated cytokine release syndrome (CRS) and GvHD, a suicide gene iRC9 was incorporated into the constructs. […] The suicide gene was also effective in vivo. Mice engrafted with THP-1 tumor received iRC9.IL15.iMC-transduced NKs labeled with oNL […] luciferase. Mice were then either treated with the dimerizer temsirolimus or vehicle control.

SMILES	surface NK cell receptor expression [1]	IFN-γ production at the co-culture supernatant (IFN-γ)	safety [2]	apoptosis of transduced NK cells (transduced NK cells)	viability of non-transduced NK cells (transduced NK cells)	frequency of gene modified NK cells in the spleens ([3]; temsirolimus treated mice)	BLI signal of NK cells in vivo ([3]; within 24 hrs, temsirolimus 1 mg/kg i.p. vs vehicle)
CC[C@H](C(=O)N1CCCC[C@H]1C(=O)O[C@H](CCc1ccc(OC)c(OC)c1)c1cccc(OCC(=O)NCCNC(=O)COc2cccc([C@@H](CCc3ccc(OC)c(OC)c3)OC(=O)[C@@H]3CCCCN3C(=O)[C@@H](CC)c3cc(OC)c(OC)c(OC)c3)c2)c1)c1cc(OC)c(OC)c(OC)c1 (relative stereo) [Rimiducid, 2-Piperidinecarboxylic acid, 1-[(2S)-1-oxo-2-(3,4,5-trimethoxyphenyl)butyl]-, 1,2-ethanediyIbis[imino(2-oxo-2,1-ethanediyl)oxy-3,1-phenylene[(1R)-3-(3,4-dimethoxyphenyl)propylidene]] ester, [2S-[1(R*),2R*[S*[S*[1(R*),2R*]]]]]-(9Cl)]	did not increase surface NK cell receptor expression	dramatically increased IFN-γ production at the co-culture supernatant in a dose-dependent manner	proven safe in healthy volunteers	–	–	–	–
CO[C@H]1C[C@@H]2CC[C@@H](C)[C@@](O)(O2)C(=O)C(=O)N2CCCC[C@H]2C(=O)O[C@H]([C@H](C)C[C@@H]2CC[C@@H](OC(=O)C(C)(CO)CO)[C@H](OC)C2)CC(=O)[C@H](C)/C=C(\C)[C@@H](O)[C@@H](OC)C(=O)[C@H](C)C[C@H](C)/C=C/C=C/C=C/1C [temsirolimus]	–	–	–	induced apoptosis as early as 4 hrs	no effect	significantly reduced	dramatically reduced
